These are literature values, as cited in patent US8198326B2, “Phenolic antiseptic compositions and methods of use” (3M Innovative Properties Company, priority 2004, dated 2012).

The subject of this series is methicillin resistant staphylococcus aureus. The conditions noted are these: reaction of free iodine with the organic load.

On to povidone-iodine, for which the “decrease of activity on addition of nasal secretions” value was 80-90%.
